In US20260297081A1, “COMPOUNDS AND METHODS OF TREATING CANCERS” (Cullgen Inc., priority 2023, published 2026):

Legend:
Assay type in all cases: cell-based
Calu-1 cells = assay: Anti-proliferation (viability) of NSCLC Calu-1 cells, 3 days (Table 7, FIG. 2B); conditions: Homo sapiens, 72 h; Calu-1 cells, 3 days, 10-point serial dilution; read-out: GI IC50 in Calu-1
Experimental: To evaluate anti-proliferation activities of heterobifunctional compounds, NSCLC Calu-1 or ER+ breast cancer T47D cells were treated with selected heterobifunctional compounds following a 10-point serial dilution for 3 or 6 days, respectively.
To verify that heterobifunctional compound-mediated degradation is dependent on the binding to CDK4-cyclin D complex, a negative control compound, CPD-143, which is derived from active heterobifunctional compound CPD-10 was designed. CPD-143 bears the same DDB1 ligand and linker as CPD-10 but with a modified warhead to impair the binding of the control compound to CDK4.

MCF7 cells = assay: Anti-proliferation (viability) of MCF7 cells (Table 7, FIG. 2B); conditions: Homo sapiens, MCF7, MCF7 cells, 3-6 days, 10-point serial dilution; read-out: GI IC50 in MCF-7
CDK4 [1] = target: T1, CDK4 (Homo sapiens, UniProt P11802+Q16531); assay: HiBiT detection of HiBiT-tagged CDK4 protein level in MCF7 cells, 16 hours (Table 8); parameters: expressed in transfected cells; host or cells: MCF7; conditions: MCF7 cells stably expressing HiBiT tagged target proteins; for activity at 0.01 µM: 10 nM, read-out: % CDK4 Relative Level (10 nM); for activity at 0.1 µM: 100 nM, read-out: % CDK4 Relative Level (100 nM)
Experimental: HiBiT detection system quantitatively measures total amounts of HiBiT-tagged proteins using a luminescent based method. MCF7 cells stably expressing HiBiT tagged target proteins were treated with heterobifunctional compounds at indicated concentrations for 16 hours, then lysed with Nano-Glo HiBiT Lytic detection reagents.
Target sequence in this assay (P11802 whole entry): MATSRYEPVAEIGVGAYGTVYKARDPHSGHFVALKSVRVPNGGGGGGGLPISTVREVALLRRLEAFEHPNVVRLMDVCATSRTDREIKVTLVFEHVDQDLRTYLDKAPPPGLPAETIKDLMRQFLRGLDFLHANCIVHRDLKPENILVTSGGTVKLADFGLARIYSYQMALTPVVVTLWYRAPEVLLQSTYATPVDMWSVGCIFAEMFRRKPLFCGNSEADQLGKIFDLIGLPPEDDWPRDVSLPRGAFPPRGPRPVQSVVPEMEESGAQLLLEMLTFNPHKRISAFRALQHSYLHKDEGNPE
Target sequence in this assay (P24385 whole entry partner): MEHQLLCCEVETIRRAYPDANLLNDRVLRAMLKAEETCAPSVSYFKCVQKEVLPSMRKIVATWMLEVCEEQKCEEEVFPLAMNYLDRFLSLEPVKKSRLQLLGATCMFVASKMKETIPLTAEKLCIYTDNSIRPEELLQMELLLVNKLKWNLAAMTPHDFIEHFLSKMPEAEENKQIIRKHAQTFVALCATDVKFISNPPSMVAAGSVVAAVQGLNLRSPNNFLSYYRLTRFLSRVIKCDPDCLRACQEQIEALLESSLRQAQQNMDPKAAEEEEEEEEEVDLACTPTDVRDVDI
Target sequence in this assay (Q16531 2-1140 limits assumed): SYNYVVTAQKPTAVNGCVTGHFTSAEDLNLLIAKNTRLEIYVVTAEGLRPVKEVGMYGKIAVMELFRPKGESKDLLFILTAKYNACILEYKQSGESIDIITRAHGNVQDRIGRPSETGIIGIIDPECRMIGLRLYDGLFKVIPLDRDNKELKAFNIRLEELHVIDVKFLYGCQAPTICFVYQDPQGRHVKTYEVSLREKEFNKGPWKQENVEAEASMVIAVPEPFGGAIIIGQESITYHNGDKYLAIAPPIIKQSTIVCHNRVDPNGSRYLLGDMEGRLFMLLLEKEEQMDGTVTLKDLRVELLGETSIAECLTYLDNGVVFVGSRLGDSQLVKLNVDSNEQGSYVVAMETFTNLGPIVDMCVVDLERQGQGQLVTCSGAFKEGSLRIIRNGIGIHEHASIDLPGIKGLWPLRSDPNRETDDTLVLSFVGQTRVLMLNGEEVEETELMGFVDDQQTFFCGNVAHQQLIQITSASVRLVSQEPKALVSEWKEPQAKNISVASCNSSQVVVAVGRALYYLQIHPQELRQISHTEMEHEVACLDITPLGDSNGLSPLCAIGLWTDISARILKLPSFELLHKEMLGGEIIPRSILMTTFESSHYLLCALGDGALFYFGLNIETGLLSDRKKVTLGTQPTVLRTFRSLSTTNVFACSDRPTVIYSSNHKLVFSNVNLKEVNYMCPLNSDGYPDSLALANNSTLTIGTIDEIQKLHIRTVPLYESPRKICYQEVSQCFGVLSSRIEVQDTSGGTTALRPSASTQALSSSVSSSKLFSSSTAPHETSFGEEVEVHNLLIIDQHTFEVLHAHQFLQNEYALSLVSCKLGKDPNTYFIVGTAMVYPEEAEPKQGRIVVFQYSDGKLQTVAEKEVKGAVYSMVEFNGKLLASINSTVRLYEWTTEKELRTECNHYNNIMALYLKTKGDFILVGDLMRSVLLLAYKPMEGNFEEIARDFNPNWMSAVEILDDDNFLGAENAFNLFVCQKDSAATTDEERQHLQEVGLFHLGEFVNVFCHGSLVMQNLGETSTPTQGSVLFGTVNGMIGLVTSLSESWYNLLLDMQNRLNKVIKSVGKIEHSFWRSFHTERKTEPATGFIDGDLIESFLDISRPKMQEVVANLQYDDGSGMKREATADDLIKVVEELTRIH

CDK4 [2] = target: T1, CDK4; assay: CDK4 percentage degradation in Calu-1 cells (Table 6); parameters: Cells that express cyclin D1-3 and CDK4/6 proteins were treated with heterobifunctional compounds; endogenous in cells; host or cells: Calu-1; conditions: 16 hours; for inhibition at 0.04 µM: 40 nM; for inhibition at 0.2 µM: 200 nM
In short: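 Percentage degradation of Cyclin D1 and CDK4 derived from densitometry of ECL Western blots on lysates of Calu-1 cells. Treatment was 16 h with compound at either 40 nM or 200 nM.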
Target sequence in this assay (P11802 2-303 limits assumed): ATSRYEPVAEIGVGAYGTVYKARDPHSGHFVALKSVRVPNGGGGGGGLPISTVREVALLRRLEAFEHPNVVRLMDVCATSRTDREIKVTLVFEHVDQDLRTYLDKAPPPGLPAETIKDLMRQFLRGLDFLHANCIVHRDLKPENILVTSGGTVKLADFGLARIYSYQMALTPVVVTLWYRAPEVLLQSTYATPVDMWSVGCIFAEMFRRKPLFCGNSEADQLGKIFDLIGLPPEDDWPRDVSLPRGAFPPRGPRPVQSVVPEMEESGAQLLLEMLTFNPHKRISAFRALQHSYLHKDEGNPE
Target sequence in this assay (P24385 whole entry partner): as the sequence (P24385 whole entry partner) above
Target sequence in this assay (Q16531 2-1140 limits assumed): as the sequence (Q16531 2-1140 limits assumed) above

| SMILES | IC50 (Calu-1 cells) [µM] | other results |
| --- | --- | --- |
| CC(=O)c1c(C)c2cnc(Nc3ccc(CN4CCN(CC(=O)NCC5CC(Nc6nc(NC(C)C)ccc6C(=O)Nc6ccc(N(C)C)nn6)C5)CC4)cn3)nc2n(C2CCCC2)c1=O (stereo not drawn) [CPD-493, 2-((3-((2-(4-((6-((6-acetyl-8-cyclopentyl-5-methyl-7-oxo-7,8-dihydropyrido[2,3-d]pyrimidin-2-yl)amino)pyridin-3-yl)methyl)piperazin-1-yl)acetamido)methyl)cyclobutyl)amino)-N-(6-(dimethylamino)pyridazin-3-yl)-6-(isopropylamino)nicotinamide] | ≤ 0.01 |  |
| CC(=O)c1c(C)c2cnc(Nc3ccc(N4CCC5(CCN(CC(=O)NC67CC(Nc8nc(NC(C)C)ccc8C(=O)Nc8ccc(N(C)C)nn8)(C6)C7)C5)C4)cn3)nc2n(C2CCCC2)c1=O (stereo not drawn) [CPD-496, 2-((3-(2-(7-(6-((6-acetyl-8-cyclopentyl-5-methyl-7-oxo-7,8-dihydropyrido[2,3-d]pyrimidin-2-yl)amino)pyridin-3-yl)-2,7-diazaspiro[4.4]nonan-2-yl)acetamido)bicyclo[1.1.1]pentan-1-yl)amino)-N-(6-(dimethylamino)pyridazin-3-yl)-6-(isopropylamino)nicotinamide] | ≤ 0.01 |  |
| CC(=O)c1c(C)c2cnc(Nc3ccc(CN4CCN(C5CCN(C(=O)[C@H]6CC[C@H](Nc7nc(NC(C)C)ccc7C(=O)Nc7ccc(N(C)C)nn7)CC6)C5)CC4)cn3)nc2n(C2CCCC2)c1=O (stereo partly drawn) [CPD-512, 2-((4-(3-(4-((6-((6-acetyl-8-cyclopentyl-5-methyl-7-oxo-7,8-dihydropyrido[2,3-d]pyrimidin-2-yl)amino)pyridin-3-yl)methyl)piperazin-1-yl)pyrrolidine-1-carbonyl)cyclohexyl)amino)-N-(6-(dimethylamino)pyridazin-3-yl)-6-(isopropylamino)nicotinamide] | 0.01 to 0.05 |  |
| CC(=O)c1c(C)c2cnc(Nc3ccc(N4CCN(C5CCN(C(=O)NC6CCC(Nc7nc(NC(C)C)ccc7C(=O)Nc7ccc(N(C)C)nn7)CC6)C5)CC4)cn3)nc2n(C2CCCC2)c1=O (stereo not drawn) [CPD-483, 2-((4-(3-(4-(6-((6-acetyl-8-cyclopentyl-5-methyl-7-oxo-7,8-dihydropyrido[2,3-d]pyrimidin-2-yl)amino)pyridin-3-yl)piperazin-1-yl)pyrrolidine-1-carboxamido)cyclohexyl)amino)-N-(6-(dimethylamino)pyridazin-3-yl)-6-(isopropylamino)nicotinamide] | ≥ 0.05 |  |
| [2H]C([2H])([2H])Nc1ccc(C(=O)Nc2ccc(N(C)C)nn2)c(NC2CC3(C2)CN(C(=O)CN2CC4(C2)CN(c2ccc(Nc5ncc6c(C)c(C(C)=O)c(=O)n(C7CCCC7)c6n5)nc2)C4)C3)n1 [CPD-489, 2-((2-(2-(6-(6-((6-acetyl-8-cyclopentyl-5-methyl-7-oxo-7,8-dihydropyrido[2,3-d]pyrimidin-2-yl)amino)pyridin-3-yl)-2,6-diazaspiro[3.3]heptan-2-yl)acetyl)-2-azaspiro[3.3]heptan-6-yl)amino)-N-(6-(dimethylamino)pyridazin-3-yl)-6-((methyl-d3)amino)nicotinamide] | ≥ 0.05 |  |
| [2H]C([2H])([2H])Nc1ccc(C(=O)Nc2ccc(N(C)C)nn2)c(NC2CC3(C2)CN(CC(=O)N2CCC4(CCN(Cc5ccc(Nc6ncc7c(C)c(C(C)=O)c(=O)n(C8CCCC8)c7n6)nc5)C4)C2)C3)n1 (stereo not drawn) [CPD-507, 2-((2-(2-(7-((6-((6-acetyl-8-cyclopentyl-5-methyl-7-oxo-7,8-dihydropyrido[2,3-d]pyrimidin-2-yl)amino)pyridin-3-yl)methyl)-2,7-diazaspiro[4.4]nonan-2-yl)-2-oxoethyl)-2-azaspiro[3.3]heptan-6-yl)amino)-N-(6-(dimethylamino)pyridazin-3-yl)-6-((methyl-d3)amino)nicotinamide] | ≥ 0.05 |  |
| CC(=O)c1c(C)c2cnc(Nc3ccc(N4CC5(CC(N(C)CC(=O)N6CCC(Nc7nc(NC(C)C)ccc7C(=O)Nc7ccc(N(C)C)nn7)CC6)C5)C4)cn3)nc2n(C2CCCC2)c1=O [CPD-484, 2-((1-(N-(2-(6-((6-acetyl-8-cyclopentyl-5-methyl-7-oxo-7,8-dihydropyrido[2,3-d]pyrimidin-2-yl)amino)pyridin-3-yl)-2-azaspiro[3.3]heptan-6-yl)-N-methylglycyl)piperidin-4-yl)amino)-N-(6-(dimethylamino)pyridazin-3-yl)-6-(isopropylamino)nicotinamide] | 0.01 to 0.05 |  |
| CC(=O)c1c(C)c2cnc(Nc3ccc(N4CCN(CCC(=O)N5CC6(CC(Nc7nc(NC(C)C)ccc7C(=O)Nc7cc(C)n(C)n7)C6)C5)CC4)cn3)nc2n(C2CCCC2)c1=O [CPD-302, 2-((2-(3-(4-(6-((6-acetyl-8-cyclopentyl-5-methyl-7-oxo-7,8-dihydropyrido[2,3-d]pyrimidin-2-yl)amino)pyridin-3-yl)piperazin-1-yl)propanoyl)-2-azaspiro[3.3]heptan-6-yl)amino)-N-(1,5-dimethyl-1H-pyrazol-3-yl)-6-(isopropylamino)nicotinamide] |  | IC50 (MCF7 cells): < 0.05 µM; activity at 0.01 µM (CDK4 [1]): 55 to 85%; activity at 0.1 µM (CDK4 [1]): 55 to 85%; inhibition at 0.04 µM (CDK4 [2]): < 30%; inhibition at 0.2 µM (CDK4 [2]): < 30% |
| CC(=O)c1c(C)c2cnc(Nc3ccc(N4CCN(C(C)CC(=O)N5CC6(CC(Nc7nc(NC(C)C)ccc7C(=O)Nc7cn(C)c(C8CC8)n7)C6)C5)CC4)cn3)nc2n(C2CCCC2)c1=O (stereo not drawn) [CPD-338, 2-((2-(3-(4-(6-((6-acetyl-8-cyclopentyl-5-methyl-7-oxo-7,8-dihydropyrido[2,3-d]pyrimidin-2-yl)amino)pyridin-3-yl)piperazin-1-yl)butanoyl)-2-azaspiro[3.3]heptan-6-yl)amino)-N-(2-cyclopropyl-1-methyl-1H-imidazol-4-yl)-6-(isopropylamino)nicotinamide] |  | IC50 (MCF7 cells): < 0.05 µM; activity at 0.01 µM (CDK4 [1]): 55 to 85%; activity at 0.1 µM (CDK4 [1]): 55 to 85%; inhibition at 0.04 µM (CDK4 [2]): 30 to 50%; inhibition at 0.2 µM (CDK4 [2]): 30 to 50% |

Second part, led by results:

| IC50 (Calu-1 cells) [µM] | SMILES | other results |
| --- | --- | --- |
| ≤ 0.01 | [2H]C([2H])([2H])Nc1ccc(C(=O)Nc2cc3n(n2)CCC3)c(NC2CC3(C2)CN(C(=O)CC(N2CCN(c4ccc(Nc5ncc6c(C)c(C(C)=O)c(=O)n(C7CCCC7)c6n5)nc4)CC2)C(F)(F)F)C3)n1 (stereo not drawn) [CPD-524, 2-((2-(3-(4-(6-((6-acetyl-8-cyclopentyl-5-methyl-7-oxo-7,8-dihydropyrido[2,3-d]pyrimidin-2-yl)amino)pyridin-3-yl)piperazin-1-yl)-4,4,4-trifluorobutanoyl)-2-azaspiro[3.3]heptan-6-yl)amino)-N-(5,6-dihydro-4H-pyrrolo[1,2-b]pyrazol-2-yl)-6-((methyl-d3)amino)nicotinamide] |  |
| ≤ 0.01 | CC(=O)c1c(C)c2cnc(Nc3ccc(N4CCN(C5CCN(C(=O)[C@H]6CC[C@H](Nc7cc(NC(C)C)ccc7C(=O)Nc7ccc(N(C)C)nn7)CC6)C5)CC4)cn3)nc2n(C2CCCC2)c1=O (stereo partly drawn) [CPD-527, 2-((trans-4-(3-(4-(6-((6-acetyl-8-cyclopentyl-5-methyl-7-oxo-7,8-dihydropyrido[2,3-d]pyrimidin-2-yl)amino)pyridin-3-yl)piperazin-1-yl)pyrrolidine-1-carbonyl)cyclohexyl)amino)-N-(6-(dimethylamino)pyridazin-3-yl)-4-(isopropylamino)benzamide] |  |
| ≤ 0.01 | [2H]C([2H])([2H])Nc1ccc(C(=O)Nc2ccc(N(C)C)nn2)c(NC2CC3(C2)CN(C(=O)CN2CCC4(CCN(Cc5ccc(Nc6ncc7c(C)c(C(C)=O)c(=O)n(C8CCCC8)c7n6)nc5)C4)C2)C3)n1 (stereo not drawn) [CPD-519, 2-((2-(2-(7-((6-((6-acetyl-8-cyclopentyl-5-methyl-7-oxo-7,8-dihydropyrido[2,3-d]pyrimidin-2-yl)amino)pyridin-3-yl)methyl)-2,7-diazaspiro[4.4]nonan-2-yl)acetyl)-2-azaspiro[3.3]heptan-6-yl)amino)-N-(6-(dimethylamino)pyridazin-3-yl)-6-((methyl-d3)amino)nicotinamide] |  |
| ≤ 0.01 | COc1cccc(NC(=O)c2ccc(NC(C)C)nc2N[C@H]2CC[C@H](C(=O)N3CCC(N4CCN(c5ccc(Nc6ncc7c(C)c(C(C)=O)c(=O)n(C8CCCC8)c7n6)nc5)CC4)C3)CC2)n1 (stereo partly drawn) [CPD-522, 2-((trans-4-(3-(4-(6-((6-acetyl-8-cyclopentyl-5-methyl-7-oxo-7,8-dihydropyrido[2,3-d]pyrimidin-2-yl)amino)pyridin-3-yl)piperazin-1-yl)pyrrolidine-1-carbonyl)cyclohexyl)amino)-6-(isopropylamino)-N-(6-methoxypyridin-2-yl)nicotinamide] |  |
